*1 amine or outer side, *2 acyl side, *3 side chain or, on linkers, in order; H or OH if unused. Where a SMILES comes first, the peptide text is derived from it. Bridges are numbered along the chain shown (N, C = ends). [ ]: non-standard residue; d: D form. The star is where a group is joined. Ala(1-(4-CO-Ph)triazol-4-yl) = O=C([C@H](Cc1cn(-c2ccc(C(=O)[*:3])cc2)nn1)N[*:1])[*:2]; X1 = O=C(O)CN1CCN(CC(=O)O)CCN([C@H](CCC(=O)*)C(=O)O)CC1; X2 = Cc1ccc(CCCC(=O)NCCCC[C@H](N*)C(N)=O)cc1; AEEA = NCCOCCOCC(=O)O
Legend:
[1] = test system: MPC cells; experiment: Cell binding and uptake (internalization) in MPC cells; format: cell-based, mouse
Protocol: Furthermore, the receptor-mediated endocytosis (referred to as internalization) of the novel compounds was assessed. The values for the internalized fraction (or “acid wash” resistant fraction) were >50% (Figure S5), which might indicate a similar pharmacological behavior of these ligands upon binding to SST2 as the parent ligand TATE.
Cell binding and uptake were measured as previously described. , MPC cells were seeded into collagen-coated 24-well microplates and cultivated for 4 days. All washing steps were performed using PBS containing 0.9 mM CaCl2 and 0.5 mM MgCl2. Total radioligand uptake was measured after incubation with the radioligand (A m = 30 GBq/μmol) at a final concentration of 20 nM in RPMI 1640 medium with GlutaMAX supplement (Thermo Fisher Scientific) for 1 h at 37 and 4 °C. Nonspecific binding was determined in the presence of 20 μM Acetyl-TATE. The uptake fraction was measured after acid wash of cell surface-bound radioligand with wash buffer containing 0.05 M glycine, pH 2.8, for 5 min. The activity of cell homogenates was measured using the γ counter Wizard (PerkinElmer). The protein content of cell homogenates was measured as described above.
Figure S5: Cell binding data
Data shown in A and B are mean values (±SD) of one experiment (NODAGA-cLAB(5/6)- TATE and NODAGA-cLAB4-scrTATE) or 3 experiments (±SEM, DOTA-EB-TATE), which were performed in sextuplicate. In C, the amount of specific “internalized” (acid resistant) radioligand (red bars in A, mean values) is expressed as percentage of specific total -bound radioligand (blue bars in A, mean values). The difference to 100% was assigned to “surface - bound” radioligand. For a better overview, the compound names were abbreviated. […]
specific binding of radioligand
Incubation at 37°C for 1 h
(% dose/mg of protein) Washing with
Incubation at 4°C for 1 h […]
(1 picture or pasted object on this page, not shown here)

[2] = Plasma stability assay, mouse plasma; format: in vitro ADME
Excerpt: Previously, we discovered that the ^64Cu-labeled NODAGA-cLAB-TATEs with a primary amide functionality within the albumin-binding moiety are subject to a metabolic transformation in mouse plasma. In fact, the primary amide is slowly hydrolyzed to the carboxylic acid, which turned out to be catalyzed by plasma carboxylesterases as proven by blocking this transformation in the presence of bis-para-nitrophenylphosphate. […] As this transformation entails also an increase in the binding affinity to albumin, there might be effects on the biodistribution in mice, in particular the blood circulation time. To investigate this, NODAGA-cLAB6-TATE was designed, with cLAB6 (N3Bz-D-Lys(MPB)-NH2) representing the D-configured pendant of cLAB4 (N3Bz-L-Lys(MPB)-NH2). […] However, the apparent half-lives for both compounds (≈13 and >24 h) are longer compared to the half-lives previously determined for [ ^ 64 Cu]-Cu-NODAGA-cLAB3-TATE and [ ^ 64 Cu]-Cu-NODAGA-cLAB4-TATE (≈6 and ≈3 h, respectively). For better comparability, the stability of [ ^ 64 Cu]-Cu-NODAGA-cLAB4-TATE was again examined with the same mouse plasma batch used for [ ^ 64 Cu]-Cu-NODAGA-cLAB5-TATE and [ ^ 64 Cu]-Cu-NODAGA-cLAB4- scr TATE. […] Therefore, the discrepancy with our previously reported stability data in mouse plasma might result from differences in the activity of plasma carboxylesterases in the obtained mouse plasma. However, the rate of amide hydrolysis is indeed lower for [ ^ 64 Cu]-Cu-NODAGA-cLAB4- scr TATE, independent of the mouse plasma batch, which might indicate that the actual amino acid sequence in these peptides affects the recognition by the plasma carboxylesterases.
2 Stability of the ^64Cu-labeled TATE derivatives in mouse plasma. (A) Radio-HPLC chromatograms of [^64Cu]-Cu-NODAGA-cLAB5-TATE (red), [^64Cu]-Cu-NODAGA-cLAB6-TATE (green), and [^64Cu]-Cu-NODAGA-cLAB- scr TATE (blue) after ^64Cu-labeling and incubation in mouse plasma for 24 h show the transformation of [^64Cu]-Cu-NODAGA-cLAB5-TATE and [^64Cu]-Cu-NODAGA-cLAB4- scr TATE into a metabolite of higher retention time (see the Discussion for explanation). (B) Plot of residual intact radioligands upon incubation with mouse plasma including nonlinear regression (black line) according to one-phase decay for [^64Cu]-Cu-NODAGA-cLAB5-TATE (red circles). The dotted lines represent fractions of 0.5 and 0.9. Data shown are mean values (±SD) from 1 to 3 experiments (each experiment was performed in single execution). […]
Plasma stability of the radioligands was done as previously described for NODAGA-cLAB-TATE and NODAGA-NES-TATEs. , Briefly, an aliquot of the radioligand was added to plasma and stability was assessed at different time points by withdrawing an aliquot, followed by protein precipitation and analysis by radio-HPLC.

## Cc1ccc(CCCC(=O)NCCCC[C@H](NC(=O)c2ccc(-n3cc(C[C@H](NC(=O)CC[C@H](C(=O)O)N4CCN(CC(=O)O)CCN(CC(=O)O)CC4)C(=O)NCCOCCOCC(=O)N[C@@H](CCCCN)C(=O)N[C@H]4CSSC[C@@H](C(=O)N[C@H](C(=O)O)[C@@H](C)O)NC(=O)[C@@H](Cc5c[nH]c6ccccc56)NC(=O)[C@@H](Cc5ccccc5)NC(=O)[C@H]([C@@H](C)O)NC(=O)[C@H](Cc5ccc(O)cc5)NC4=O)nn3)cc2)C(N)=O)cc1 [[64Cu]Cu-NODAGA-cLAB4-scrTATE, metal not drawn] (X1-[Ala(1-(4-CO-Ph)triazol-4-yl)](X2)[AEEA]KCYT[dF][dW]CT-OH; disulfide 4-9)
[1]; MPC cells, 20 nM, 1 h
  binding in the cell binding and uptake assay: no binding at all
[1]; incubation at 4 °C for 1 h, washing with PBS pH 7.4, 20 nM
  specific binding of radioligand: 0.01 % dose/mg of protein
[1]; incubation at 4 °C for 1 h, washing with glycine buffer pH 2.8, 20 nM
  specific binding of radioligand: 0.03 % dose/mg of protein
[1]; incubation at 37 °C for 1 h, washing with PBS pH 7.4 (total bound), 20 nM
  specific binding of radioligand: 0.02 %dose/mg of protein
[1]; incubation at 37 °C for 1 h, washing with glycine buffer pH 2.8 (acid resistant), 20 nM
  specific binding of radioligand: 0.04 %dose/mg of protein
[2]; 37 °C, up to 24 h, single experiment, read-out: t1/2 (plasma), mouse
  half-life: > 24 h
[2]; 24 h, radio-HPLC
  hydrolysis of the primary amide in mouse plasma: hydrolyzed
